Reference: patent publication US4839380A, “1-Thiocarbamoylmethylpyrrolidine-2-thione, medical compositions of, and anti-hypoxic and nootropic use thereof” (priority 1988, dated 1989)

Experiments:
mice [1] = test: Acute normobaric hypoxia: lifespan of mice; format: in vivo
Description: (§1) The antihypoxic effect of the compound according to the present invention was studied in comparison with pyracetam on various experimental models of hypoxic states in experiments on mice and rats. The compound according to the present invention and pyracetam were administered intraperitoneally in the form of an aqueous emulsion prepared with Tween-80.
(§2) Investigations were also carried out with a model of an acute normobaric hypoxia.
(§3) An acute normobaric hypoxia was simulated in a flow-type barometric chamber at an ambient temperature of 17°-22° C. with absorption of carbon dioxide and water. A gas mixture ([…] and 3% of O2) was admitted into the barometric chamber at the rate of 10 1/min. The lifespan of test animals (mice, rats) in the chambers was recorded since the moment of the mixture admission into the chamber till the moment of perdition of the animals which was adjudicated by an agonal breathing against the background of convulsions. The modes of administration of the preparations, species of animals and analysis of the results of the experiments are similar to those described hereinbefore for the case of an acute hypobaric hypoxia. The experiments were carried out using 50 mice and 20 rats.

rats = test: Acute normobaric hypoxia: lifespan of rats; format: in vivo
Description: as §1, §2, §3

[2] = Convulsions caused by thiosemicarbazide; format: in vivo, white mice
Source text: The interaction of the compound according to the present invention with thiosemicarbazide--a specific antagonist of gamma-aminobutyric acid (GABA) was also studied.
Due to the fact that in functioning of the brain, in particular in processes of learning and memorizing, gammaaminobutyric acid (GABA) plays an important role, the possibility of the presence of a GABA-ergic component in the mechanism of action of the compound according to the present invention was studied. To this end, the ability of the compound according to the present invention to prevent convulsions caused by thiosemicarbazide, which is an inhibitor of an enzyme synthesizing gamma-aminobutyric acid, was studied.
The experiments were carried out on 140 white mice of 18-20 g mass. Thiosemicarbazide was administered hypodermally in the dose of 20 mg/kg. The compound according to the present invention was administered intraperitoneally in the doses of 50, 250 and 500 mg/kg 20 minutes after administration of thiosemicarbazide. For every dose 20 mice were used. The presence of the anticonvulsion activity was determined by the change of the latent period of occurrence of convulsions and by extension of the period of death of the animals. The experiments were carried out in comparison with pyracetam.

mice [3] = test: Lifespan of mice under acute hypoxic hypoxia with hypercapnia (sealed chamber); format: in vivo, mice (nondescript white male)
Description: as §1
Tests were carried out on a model of an acute hypoxic hypoxia with hypercapnia.
The tests were conducted using 540 nondescript while male mice with a mass of 20-22 g. Each mouse was separately placed into a sealed chamber (with the capacity of 250 ml) 60 minutes after administration of the compound according to the present invention in the doses of 50, 100, 250, 500 and 750 mg/kg. The control animals were issued with an isotonic solution of sodium chloride. The antihypoxic activity was assessed by the lifespan of the mice in the sealed chamber (in minutes).

[4] = prior art; cited from earlier work
mice [5] = test: Acute hypobaric hypoxia: height ceiling for mice (Hmax); format: in vivo, mice (male, tetrahybrids)
Description: as §1
The studies were carried out on a model of an acute hypobaric hypoxia.
An acute […] hypoxia was modelled in a flow-type barometric chamber at an ambient temperature of 17°-20° C. with absorption of carbon dioxide and water.
The test animals (male mice, tetrahybrids) with a mass of 15-22 g of the same generation were "lifted" (under simulation conditions) at the mean speed of 50 m/sec to the height of 11,000 m at which the lifespan (in minutes) for the same series of experiments was evaluated. Furthermore, the mice were discretely lifted at the same speed to the height of 10,000 m where they stayed for 1 minute and then to the height of 11,000 m, where they again were kept for 1 minute and so on, till their death for the determination of the height "ceiling", The animals' death was adjudicated by the occurrence of an agonal breathing against the background of convulsions. The total number of mice employed in the experiments was 200.
As the comparison preparation pracetam was used. The compound according to the present invention and pyracetam were administered one hour before the "lift".

[6] = Solubility and storage stability; format: physicochemical
mice [7] = test: Toxicity and general effect; format: in vivo
Description: The study of toxicity and a general effect of the compound according to the present invention was effected on mice with a mass of 18-20 g upon an intraperitoneal administration of the compound according to the present invention in doses of from 100 to 1.500 mg/kg.

[8] = Learning speed, performing of conditional reflex and memory consolidation (overall); format: in vivo, rats and mice; details: conditional reflex, memory consolidation, versus pyracetam
Description: The compound according to the present invention was also tested for the effect produced thereby on processes of learning and memorizing.
The study of the compound according to the present invention for the speed of learning and performing the produced conditioned reflux was effected in experiments on rats using the method of electrodefensive conditioned reflexes of avoidance.
In experiments on mice the compound according to the present invention was tested for the effects produced thereby on processes of memory consolidation according to the results of investigation of the conditional response of passive avoidance.

[9] = dose 4 times that of the compound of the invention

In the case of `NC(=O)CN1CCCC1=O` [Pyracetam, 1-carbamidomethylpyrrolidone-2, reference compound], the “lifespan at an acute normobaric hypoxia, mice” value (mice [1]; mice, 250 mg/kg) was 3.73 ± 0.254 min, the “lifespan at an acute normobaric hypoxia, mice, % (control = 100%)” value (“lifespan … mice, % (control = 100%)” for short) (mice [1]; mice, 250 mg/kg) was 87.7 ± 5.97% and the “lifespan at an acute normobaric hypoxia, mice” value (mice [1]; mice, 500 mg/kg) was 6.08 ± 0.744 min. The “lifespan … mice, % (control = 100%)” value (mice [1]; mice, 500 mg/kg) was 143.1 ± 17.5%, the “lifespan at an acute normobaric hypoxia, rats” value (rats; 250 mg/kg) was “inactive” and the “lifespan at an acute normobaric hypoxia, rats” value (rats; 500 mg/kg) was 17.3 ± 5.25 min. The “lifespan at an acute normobaric hypoxia, rats, % (control = 100%)” value (rats; 500 mg/kg) was 93.0 ± 28.2%, the “Latent period of convulsion occurrence” value ([2]; 1000 mg/kg) was 66.6 (61.0-72.2) min and the “Time period after which animals die” value ([2]; 1000 mg/kg) was 79.9 (64-96.8) min. For the same molecule, the “Latent period of convulsion occurrence” value ([2]; 2000 mg/kg) was 70.6 (65.6-75.6) min, the “Time period after which animals die” value ([2]; 2000 mg/kg) was 82 (73.6-90.4) min and the “extension of the latent period of occurrence of convulsions as compared to the control” value [2, 9] was 10%. The “extension of the period of death as compared to the control” value [2, 9] was 17%, the “effect on thiosemicarbazide convulsions similar to that of the compound of the invention” value ([2]; higher doses) was “pronounced but very slightly” and the “lifespan of mice under acute hypoxic hypoxia” value (“lifespan of mice” below) (mice [3]; 100 mg/kg i.p.) was 27.4 min. The “lifespan of mice” value (mice [3]; 250 mg/kg i.p.) was 33.5 min, the “lifespan of mice” value (mice [3]; 500 mg/kg i.p.) was 39.6 min and the “lifespan of mice” value (mice [3]; 750 mg/kg i.p.) was 34.4 min. The “extension of mice lifespan as compared to the control” value (mice [3]; 2,000 mg/kg) was 60%, the “lifespan of mice” value (mice [3]; 2000 mg/kg i.p.) was 45.0 min and the “lifespan of mice” value (mice [3]; 2000 mg/kg i.p., listed as pyracetam) was 45 min. For the same molecule, the “lifespan of mice” value (mice [3]; column 8, dose printed "100" mg/kg (between 750 and 2000), i.p.) was 41.4 min, the “stimulative effect on the mechanisms of memory consolidation and performance of conditioned reflexes” value [4] was “absence of a pronounced stimulative effect” and the “height ceiling for mice (Hmax)” value (mice [5]; 250 mg/kg) was 10.96 ± 0.91 thous. m. The “height ceiling for mice (Hmax)” value (mice [5]; 500 mg/kg) was 11.55 ± 0.62 thous. m.
With `NC(=S)CN1CCCC1=S` [Compound of the present invention, 1-thiocarbamylmethylpyrrolidine-2-thione] the “solubility in N,N-dimethylformamide” value ([6]; N,N-dimethylformamide) was “soluble”, the “solubility in ether, hexane” value ([6]; ether, hexane) was “insoluble” and the storage stability ([6]; storage) was “stable in storage”. The “increase of resistance of mice to acute normobaric hypoxia as compared to the control” value (mice [1]; mice, 250 mg/kg) was 4.5 times, the “lifespan at an acute normobaric hypoxia, mice” value (mice [1]; mice, 250 mg/kg) was 22.21 ± 3.23 min and the “lifespan … mice, % (control = 100%)” value (mice [1]; mice, 250 mg/kg) was 469.5 ± 68.3%. For the same molecule, the “superiority to pyracetam in effectiveness, mice” value (mice [1]; mice, versus pyracetam at 500 mg/kg) was 3.2 times, the “superiority to pyracetam in effectiveness” value (mice [1]; versus pyracetam at 250 mg/kg) was 5 times and the “increase of resistance of rats to acute normobaric hypoxia as compared to the control” value (rats; 250 mg/kg) was 1.5 times. For the same molecule, the “lifespan at an acute normobaric hypoxia, rats” value (rats; 250 mg/kg) was 27.38 ± 7.07 min, the “lifespan at an acute normobaric hypoxia, rats, % (control = 100%)” value (rats; 250 mg/kg) was 147.2 ± 38.0% and the “superiority to pyracetam in effectiveness, rats” value (rats; versus pyracetam at 500 mg/kg) was 1.5 times. For the same molecule, the “Latent period of convulsion occurrence” value ([2]; 50 mg/kg) was 59 (51.5-66.5) min, the “Time period after which animals die” value ([2]; 50 mg/kg) was 76 (64-88) min and the “Latent period of convulsion occurrence” value ([2]; 250 mg/kg) was 82.6 (76.I-89.I) min. For the same molecule, the “Time period after which animals die” value ([2]; 250 mg/kg) was 100.8 min, the “Latent period of convulsion occurrence” value ([2]; 500 mg/kg) was 80 (75.6-86.4) min and the “Time period after which animals die” value ([2]; 500 mg/kg) was 105 (95-115) min. For the same molecule, the “extension of the latent period of occurrence of convulsions as compared to the control” value ([2]; 250 and 500 mg/kg i.p.) was 25-30%, the “extension of the period of death occurrence as compared to the control” value ([2]; 250 and 500 mg/kg i.p.) was 45-50% and the “lifespan of mice” value (mice [3]; 100 mg/kg i.p.) was 56.3 min. For the same molecule, the “lifespan of mice” value (mice [3]; 250 mg/kg i.p.) was 60.3 min, the “lifespan of mice” value (mice [3]; 500 mg/kg i.p.) was 95.2 min and the “extension of mice lifespan as compared to the control” value (mice [3]; 750 mg/kg) was 4 times. For the same molecule, the “increase of mice lifespan as compared to the control” value (mice [3]; 750 mg/kg) was 324.5%, the “lifespan of mice” value (mice [3]; 750 mg/kg i.p.) was 119.2 min and the minimal effective dose (mice [3]; Mus musculus, ip, read-out: dose beginning with which resistance to acute oxygen insufficiency is enhanced and lifespan extended) was 100 mg/kg. For the same molecule, the “height ceiling for mice (Hmax)” value (mice [5]; 250 mg/kg) was 14.0 ± 0.707 thous. m, the “elevation of the height ceiling as compared to the control and pyracetam” value (mice [5]; 500 mg/kg) was 4,000 m and the “height ceiling for mice (Hmax)” value (mice [5]; 500 mg/kg) was 15.57 ± 0.85 thous. m. For the same molecule, the toxicity classification (mice [7]; based on LD50) was “low-toxic”, the “dose with which suppression of a general state of the animals starts” value (mice [7]; mice, intraperitoneal) was 250 mg/kg and the “effective doses smaller than those of pyracetam” value [8] was 4-5 times.
